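Results reflect a 48-hour exposure of cells in 96-well plates to compound at five concentrations. TGI is the concentration that stops growth completely.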
Test system: RXF-631 renal
Experiment: growth of human tumour cells (NCI), 48 h

`O=C(c1ccccc1)[C@H]1Nc2ccc(Cl)cc2[C@H]2OCCC[C@@H]12` was tested, and the TGI was 34.5 µM.
